According to the NIST ThermoML archive (doi:10.1016/j.jct.2003.12.005):

Assays:
[1] = 101.3 kPa, Liquid
[2] = xn = mol fraction of the nth substance listed; conditions: 101.3 kPa, Liquid

CCC(C)O (configuration not stated) [butan-2-ol]
[1]
Conditions	mass density [kg/m3]	speed of sound [m/s]	viscosity [mPa·s]
293.15 K	806.8	1230	3.623
298.15 K	802.7	1212	2.995
303.15 K	798.5	1194	2.493

CCC(C)O (configuration not stated) [butan-2-ol] + CCCCCCCC
[2]
Conditions	mass density, 293.15 K [kg/m3]	mass density, 298.15 K [kg/m3]	mass density, 303.15 K [kg/m3]	speed of sound, 293.15 K [m/s]	speed of sound, 298.15 K [m/s]	speed of sound, 303.15 K [m/s]	viscosity, 293.15 K [mPa·s]	viscosity, 298.15 K [mPa·s]	viscosity, 303.15 K [mPa·s]
x1 = 0.0481	704.6	700.5	696.4	1190	1169	1148	0.541	0.508	0.478
x1 = 0.0974	707.2	703.1	698.9	1187	1167	1146	0.554	0.519	0.488
x1 = 0.1984	713.3	709.2	704.9	1184	1163	1143	0.582	0.544	0.511
x1 = 0.289	719.4	715.2	711	1182	1161	1141	0.624	0.579	0.541
x1 = 0.3964	727.7	723.5	719.1	1181	1161	1141	0.697	0.644	0.599
x1 = 0.4923	736.2	731.9	727.5	1183	1162	1142	0.78	0.713	0.645
x1 = 0.5931	746.5	742.1	737.8	1187	1166	1146	0.927	0.84	0.761
x1 = 0.6922	758.1	753.8	749.4	1193	1173	1153	1.162	1.031	0.919
x1 = 0.7987	772.5	768.2	763.9	1202	1182	1163	1.574	1.361	1.191
x1 = 0.8988	788.3	784	779.7	1214	1195	1176	2.267	1.932	1.662
x1 = 0.9495	797.2	793	788.8	1222	1203	1185	2.809	2.353	1.99
x1 = 1	806.8	802.7	798.5	1230	1212	1194	3.623	2.995	2.493

CCC(C)O (configuration not stated) [butan-2-ol] + CCCCCCCCCC
[2], x1 = 1
Conditions	mass density [kg/m3]	speed of sound [m/s]	viscosity [mPa·s]
293.15 K	806.8	1230	3.623
298.15 K	802.7	1212	2.995
303.15 K	798.5	1194	2.493

CCC(C)O (configuration not stated) [butan-2-ol] + CCCCCCCCCCCC
[2], x1 = 1
Conditions	mass density [kg/m3]	speed of sound [m/s]	viscosity [mPa·s]
293.15 K	806.8	1230	3.623
298.15 K	802.7	1212	2.995
303.15 K	798.5	1194	2.493

CCCCCCCCCC [decane]
[1]
Conditions	mass density [kg/m3]	speed of sound [m/s]	viscosity [mPa·s]
293.15 K	729.9	1254	0.911
298.15 K	726.1	1235	0.845
303.15 K	722.3	1215	0.787

CCCCCCCCCC [decane] + CCC(C)O
[2]
Conditions	mass density, 293.15 K [kg/m3]	mass density, 298.15 K [kg/m3]	mass density, 303.15 K [kg/m3]	speed of sound, 293.15 K [m/s]	speed of sound, 298.15 K [m/s]	speed of sound, 303.15 K [m/s]	viscosity, 293.15 K [mPa·s]	viscosity, 298.15 K [mPa·s]	viscosity, 303.15 K [mPa·s]
x2 = 0	729.9	726.1	722.3	1254	1235	1215	0.911	0.845	0.787
x2 = 0.0488	730.9	727.1	723.2	1250	1230	1210	0.9	0.833	0.774
x2 = 0.0992	732.4	728.5	724.6	1246	1226	1207	0.905	0.836	0.776
x2 = 0.2038	736.2	732.2	728.2	1240	1220	1201	0.926	0.854	0.791
x2 = 0.3041	740.4	736.4	732.4	1235	1215	1195	0.956	0.88	0.812
x2 = 0.3972	745	741	736.9	1230	1211	1191	1.008	0.922	0.847
x2 = 0.498	751	746.9	742.8	1227	1207	1187	1.09	0.989	0.901
x2 = 0.5972	758.1	754	749.8	1224	1204	1185	1.222	1.091	0.983
x2 = 0.703	767.5	763.3	759	1223	1203	1184	1.454	1.286	1.142
x2 = 0.8001	777.7	773.5	769.2	1224	1204	1185	1.787	1.548	1.351
x2 = 0.9002	790.5	786.4	782.1	1225	1207	1188	2.389	2.026	1.736
x2 = 0.9497	798.2	794	789.8	1228	1209	1191	2.879	2.418	2.047

CCCCCCCCCCCC [dodecane]
[1]
Conditions	mass density [kg/m3]	speed of sound [m/s]	viscosity [mPa·s]
293.15 K	748.5	1297	1.454
298.15 K	744.9	1278	1.327
303.15 K	741.3	1259	1.219

CCCCCCCCCCCC [dodecane] + CCC(C)O
[2]
Conditions	mass density, 293.15 K [kg/m3]	mass density, 298.15 K [kg/m3]	mass density, 303.15 K [kg/m3]	speed of sound, 293.15 K [m/s]	speed of sound, 298.15 K [m/s]	speed of sound, 303.15 K [m/s]	viscosity, 293.15 K [mPa·s]	viscosity, 298.15 K [mPa·s]	viscosity, 303.15 K [mPa·s]
x2 = 0	748.5	744.9	741.3	1297	1278	1259	1.454	1.327	1.219
x2 = 0.0486	749.3	745.6	741.9	1293	1274	1255	1.44	1.314	1.204
x2 = 0.0976	750.2	746.4	742.7	1289	1270	1251	1.431	1.305	1.194
x2 = 0.2046	752.5	748.7	744.9	1282	1263	1243	1.429	1.299	1.188
x2 = 0.2956	754.9	751.1	747.2	1276	1256	1237	1.432	1.297	1.179
x2 = 0.3959	758.1	754.2	750.3	1268	1249	1230	1.457	1.316	1.196
x2 = 0.4979	762.2	758.3	754.3	1261	1242	1222	1.503	1.351	1.22
x2 = 0.598	767.2	763.2	759.1	1255	1235	1216	1.603	1.425	1.276
x2 = 0.7021	773.9	769.8	765.6	1248	1229	1209	1.798	1.576	1.392
x2 = 0.8008	781.9	777.8	773.6	1242	1223	1204	2.068	1.785	1.566
x2 = 0.9002	792.7	788.5	784.3	1236	1217	1199	2.576	2.184	1.866
x2 = 0.9504	799.1	794.9	790.7	1233	1215	1196	2.989	2.508	2.122

CCCCCCCC [octane]
[1]
Conditions	mass density [kg/m3]	speed of sound [m/s]	viscosity [mPa·s]
293.15 K	702.6	1193	0.538
298.15 K	698.5	1173	0.506
303.15 K	694.5	1152	0.478

CCCCCCCC [octane] + CCC(C)O
[2], x2 = 0
Conditions	mass density [kg/m3]	speed of sound [m/s]	viscosity [mPa·s]
293.15 K	702.6	1193	0.538
298.15 K	698.5	1173	0.506
303.15 K	694.5	1152	0.478
